Legend:
[1] = Evaluation of a conversion rate to 2-acetylnaphtho[2,3-b]furan-4,9-dione in human plasma; format: in vitro ADME; settings: Human plasma, 1 umol/L, 37° C., incubation time 120 min
Method in brief: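 Compounds at 1 umol/L incubated at 37° C in human plasma, CD1 mouse plasma or pH 7.4 phosphate buffer, sampled up to 120 minutes. After acidified acetonitrile protein removal, parent loss and conversion to 2-acetylnaphtho[2,3-b]furan-4,9-dione measured by LC-MS (ESI positive).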

[2] = Pharmacokinetics test, intravenous administration; settings: for Plasma Compound Concentration: Activated form 1 in plasma, 10.5 mg/kg (i.v.)
Procedure: For water-soluble prodrugs described in the EXAMPLES, the concentration of 2-acetylnaphtho[2,3-b]furan-4,9-dione (Activated form 1) in plasma was measured. Animal species, an administration method, a method of making standard solutions, and a method of measuring the concentration in plasma are as described below.
Animal: Seven-week-aged male CD1 (ICR) mice were used as an experimental animal.
Administration method: A test substance was weighed, and then dissolved in 50 mmol/L glycine buffered saline (pH 2.0) to produce an administration solution. The body weight of a mouse was measured, and the prepared administration solution was intravenously administered.
Blood collecting method: Heparin was added to a blood-collecting vessel, and blood was collected from a mouse. To the obtained blood, 46% of Citric acid was added in 1% volume. It was then centrifuged to obtain plasma. To the collected plasma, 1 mol/L HCl was added in 10% volume to produce a plasma sample. A sample obtained by adding 10% volume of 1 mol/L HCl to blank plasma was used as a blank sample.
Making of a standard solution: One mg of a test sample was weighed, and dissolved in 10 mL of acetonitrile using a measuring flask to make a standard solution of 100 ug/mL.
Measurement of the concentration in plasma: One hundred ug/mL of the standard solution was diluted in 50% acetonitrile solution to make calibration curve samples of target concentrations. Twenty uL of a blank sample was added to 18 uL of the calibration curve sample to make a plasma calibration curve sample. Eighteen uL of 50% acetonitrile solution was added to 20 uL of the administered plasma sample to make a sample for plasma analysis. One hundred uL of acetonitrile (containing 1% volume of 10 mol/L HCl) containing an internal standard was added to the plasma calibration curve sample and the sample for plasma analysis, respectively. It should be noted that phenytoin was used as the internal standard and its concentration was prepared in 100 nmol/L. 10 uL of each sample was analyzed with LC-MS. A calibration curve was made from a value (peak ratio) of the peak area of a test substance in MS divided by the peak area of the internal standard, and the concentrations of plasma calibration curve samples. The concentration in a sample was calculated from the peak ratio of each sample and the calibration curve.

[3] = Solution stability test; format: physicochemical; settings: for % Residual ratio: 25 umol/L
Procedure: For Example 6, Example 11, and Example 22, the stability in each pH was measured. Test compounds at a concentration of 25 umol/L in respective buffer solutions prepared at pH 2.0, 3.0, 5.0, 7.4, and 9.0 were allowed to stand at 25° C. After 0, 3, 6, 9, 12, and 24 hours, they were measured with HPLC.
The buffer solutions used at respective pHs are as described below. pH 2.0: 50 mmol/L glycine buffer solution pH 3.0: 50 mmol/L citrate buffer solution pH 5.0: 50 mmol/L citrate buffer solution pH 7.4: 50 mmol/L phosphate buffer solution pH 9.0: 50 mmol/L glycine buffer solution
The measurement condition of HPLC is as described below.
Column temperature: 40° C.
Mobile phase: A: 0.1% trifluoroacetic acid-containing water

[4] = Evaluation of a conversion rate to 2-acetylnaphtho[2,3-b]furan-4,9-dione in CD1 mouse plasma; format: in vitro ADME; settings: CD1 mouse plasma, 1 umol/L, 37° C., incubation time 120 min
Method in brief: (§1)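 Compounds at 1 umol/L were incubated at 37° C in human plasma, CD1 mouse plasma or pH 7.4 phosphate buffer, sampled up to 120 minutes, acid/acetonitrile-deproteinised and analysed by LC-MS (ESI positive). Conversion (%) derived from the peak area ratio of the active form to phenytoin internal standard.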

[5] = Evaluation of a conversion rate to 2-acetylnaphtho[2,3-b]furan-4,9-dione in pH 7.4 phosphate buffer solution; format: physicochemical; settings: Phosphate buffer solution (pH 7.4), 1 umol/L, 37° C., incubation time 120 min
Method in brief: as §1

[6] = Solubility test; settings: 50 mmol/L glycine buffer solution (pH 2.0), room temperature, 24 hours shaking
Procedure: A water-soluble prodrug was added into 50 mmol/L glycine buffer solution (pH 2.0). After shaking at room temperature for 24 hours, the mixture was filtered through a membrane filter, and then the filtrate was measured with HPLC.
The measurement condition of HPLC is as described below. HPLC condition column: Acquity UPLC BEH C18, 1.7 um, 50×2.1 mm

## COC(=O)[C@@H](N)CCNC(=O)Oc1c2ccccc2c(OC(=O)NCC[C@H](N)C(=O)OC)c2oc(C(C)=O)cc12.Cl.Cl [Example 11]
[1]
  % Measurement value (conversion rate to 2-acetylnaphtho[2,3-b]furan-4,9-dione): 100%
[2]; 0.083 hr, animal 1
  Plasma Compound Concentration: 3740 nM
[2]; 0.083 hr, animal 2
  Plasma Compound Concentration: 4410 nM
[2]; 0.083 hr, animal 3
  Plasma Compound Concentration: 5290 nM
[2]; 0.083 hr, mean
  Plasma Compound Concentration: 4480 nM
[2]; 0.5 hr, animal 1
  Plasma Compound Concentration: 690 nM
[2]; 0.5 hr, animal 2
  Plasma Compound Concentration: 1170 nM
[2]; 0.5 hr, animal 3
  Plasma Compound Concentration: 1390 nM
[2]; 0.5 hr, mean
  Plasma Compound Concentration: 1080 nM
[2]; 1.0 hr, animal 1
  Plasma Compound Concentration: 420 nM
[2]; 1.0 hr, animal 2
  Plasma Compound Concentration: 620 nM
[2]; 1.0 hr, animal 3
  Plasma Compound Concentration: 630 nM
[2]; 1.0 hr, mean
  Plasma Compound Concentration: 560 nM
[2]; 2.0 hr, animal 1
  Plasma Compound Concentration: 360 nM
[2]; 2.0 hr, animal 2
  Plasma Compound Concentration: 280 nM
[2]; 2.0 hr, animal 3
  Plasma Compound Concentration: 80 nM
[2]; 2.0 hr, mean
  Plasma Compound Concentration: 240 nM
[2]; intravenously administered to mice
  production of 2-acetylnaphtho[2,3-b]furan-4,9-dione (Activated form 1) (in words): rapidly produced
[3]; pH 2.0, 25° C.
  stability in solution (in words): very stable
[3]; pH 2.0, 25° C., 0 hr
  % Residual ratio: 100%
[3]; pH 2.0, 25° C., 3 hr
  % Residual ratio: 100%
[3]; pH 2.0, 25° C., 6 hr
  % Residual ratio: 102%
[3]; pH 2.0, 25° C., 9 hr
  % Residual ratio: 102%
[3]; pH 2.0, 25° C., 12 hr
  % Residual ratio: 104%
[3]; pH 2.0, 25° C., 24 hr
  % Residual ratio: 102%
[3]; pH 3.0, 25° C.
  stability in solution (in words): sufficient stability
[3]; pH 3.0, 25° C., 0 hr
  % Residual ratio: 100%
[3]; pH 3.0, 25° C., 3 hr
  % Residual ratio: 98.6%
[3]; pH 3.0, 25° C., 6 hr
  % Residual ratio: 97.3%
[3]; pH 3.0, 25° C., 9 hr
  % Residual ratio: 98.8%
[3]; pH 3.0, 25° C., 12 hr
  % Residual ratio: 94.5%
[3]; pH 3.0, 25° C., 24 hr
  % Residual ratio: 90.7%
[3]; pH 5.0, 25° C., 0 hr
  % Residual ratio: 100%
[3]; pH 5.0, 25° C., 3 hr
  % Residual ratio: 36.0%
[3]; pH 5.0, 25° C., 6 hr
  % Residual ratio: 14.0%
[3]; pH 5.0, 25° C., 9 hr
  % Residual ratio: 5.2%
[3]; pH 5.0, 25° C., 12 hr
  % Residual ratio: 0%
[3]; pH 5.0, 25° C., 24 hr
  % Residual ratio: 0%
[3]; pH 7.4, 25° C., 0 hr
  % Residual ratio: 100%
[3]; pH 7.4, 25° C., 3 hr
  % Residual ratio: 0%
[3]; pH 7.4, 25° C., 6 hr
  % Residual ratio: 0%
[3]; pH 7.4, 25° C., 9 hr
  % Residual ratio: 0%
[3]; pH 7.4, 25° C., 12 hr
  % Residual ratio: 0%
[3]; pH 7.4, 25° C., 24 hr
  % Residual ratio: 0%
[3]; pH 9.0, 25° C., 0 hr
  % Residual ratio: 100%
[3]; pH 9.0, 25° C., 3 hr
  % Residual ratio: 0%
[3]; pH 9.0, 25° C., 6 hr
  % Residual ratio: 0%
[3]; pH 9.0, 25° C., 9 hr
  % Residual ratio: 0%
[3]; pH 9.0, 25° C., 12 hr
  % Residual ratio: 0%
[3]; pH 9.0, 25° C., 24 hr
  % Residual ratio: 0%
[4]
  % Measurement value (conversion rate to 2-acetylnaphtho[2,3-b]furan-4,9-dione): 100%
[5]
  % Measurement value (conversion rate to 2-acetylnaphtho[2,3-b]furan-4,9-dione): 58%
[6]
  Solubility in pH 2.0 buffer solution: >5.0 mg/mL

From patent US10800752B2, “Substituted naphtho[2,3-b]furans as water-soluble prodrugs for preventing and/or treating cancer” (BOSTON BIOMEDICAL, INC., priority 2015, dated 2020)
